US20230114728A1 (Venatorx Pharmaceuticals, Inc., priority 2019, published 2023)
Values after ≈ are worked out from the molar mass of the structure shown.

Key:
[1] = target: T1, P. aeruginosa PBP3 (Pseudomonas aeruginosa, UniProt G3XD46); assay: Bocillin-FL fluorescence polarization competition binding assay, P. aeruginosa PBP3; details: fluorescence polarization competition binding assay using Bocillin-FL
T1 construct: made in house
Procedure, shortened: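 Binding of boronic acid inhibitors to purified Pseudomonas aeruginosa (PA01) PBP3 was measured by fluorescence polarization competition with Bocillin-FL, a fluorescent penicillin V. Reactions of 80 μl contained 0.75 μM PBP3 and 0.1 μM Bocillin-FL in 50 mM Hepes (pH 8.0), 300 mM NaCl and 5% (v/v) glycerol, in black 384-well plates. FP (Excitation 490 nm, Emission 520 nm) was read for up to 60 minutes. EC50 is the concentration that halves PBP-bound Bocillin-FL.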

[2] = target: T2, E. coli K12 PBP3 (Escherichia coli, UniProt P0AD68); assay: biochemical; format: binding
T2 construct: made in house
Procedure, shortened: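 Fluorescence polarization (ex 490/em 520 nm) competition of inhibitors against Bocillin-FL at 0.1 μM, read up to 60 min. Final PBP levels: E. coli PBP3 1.5 μM; A. baumannii PBP2 2.5 μM, PBP3 0.2 μM in Tris pH 8.0/NaCl/glycerol/Tween 20; N. gonorrhoeae PBP2 […] in Hepes pH 8.0/NaCl/glycerol. EC50 = concentration halving PBP-bound Bocillin-FL.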

[3] = tested on: K. pneumoniae SI-117 producing VIM-1; assay: Broth microdilution MIC in CAMHB; format: cell-based; details: Klebsiella pneumoniae, read-out: Minimum Inhibitory Concentration, K. pneumoniae SI-117
Procedure, shortened: (§1)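 Per CLSI broth microdilution, colonies were grown 3-5 h at 37° C in cation-adjusted Mueller Hinton broth, then diluted to a starting inoculum of 2-8×10^5 CFU/mL against 2-fold serial compound dilutions. Plates were incubated 16-20 h at 37° C, and MIC was read visually as the lowest concentration with no growth.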

[4] = tested on: A. baumannii ATCC 19606; assay: Broth microdilution MIC in CAMHB; format: cell-based; details: Acinetobacter baumannii, ATCC19606; MHB; read-out: Minimum Inhibitory Concentration, A. baumannii ATCC 19606
Procedure, shortened: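 Hyper-permeable or efflux-deficient strains serve to probe outer-membrane penetration. Growth inhibition is scored visually after 16-20 h at 37° C in CAMHB, starting from 2-8×10^5 CFU/mL.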

[5] = tested on: P. aeruginosa ATCC 27853; assay: Broth microdilution MIC in CAMHB; format: cell-based; details: Pseudomonas aeruginosa, ATCC27853; MHB; read-out: Minimum Inhibitory Concentration, P. aeruginosa ATCC 27853
Procedure, shortened: as §1

[6] = tested on: K. pneumoniae 848844 producing SHV-11 and KPC-2; assay: Broth microdilution MIC in CAMHB; format: cell-based; details: Klebsiella pneumoniae, read-out: Minimum Inhibitory Concentration, K. pneumoniae 848844
Procedure, shortened: as §1

[7] = tested on: P. aeruginosa (ΔmexAB-oprM); assay: Broth microdilution MIC in CAMHB; format: cell-based; details: Pseudomonas aeruginosa, read-out: Minimum Inhibitory Concentration, P. aeruginosa ΔmexAB-OprM
Procedure, shortened: as §1

[8] = tested on: P. aeruginosa ATCC 35151; assay: Broth microdilution MIC in CAMHB; format: cell-based; details: Pseudomonas aeruginosa, ATCC35151; MHB; hyper-permeable strain; read-out: Minimum Inhibitory Concentration, P. aeruginosa ATCC 35151
Procedure, shortened: as §1

[9] = tested on: E. coli ATCC 25922; assay: Broth microdilution MIC in CAMHB; format: cell-based; details: Escherichia coli, ATCC25922; E. coli ATCC 25922; MHB; read-out: Minimum Inhibitory Concentration, E. coli 25922
Procedure, shortened: as §1

T2 sequence (P0AD68 1-577): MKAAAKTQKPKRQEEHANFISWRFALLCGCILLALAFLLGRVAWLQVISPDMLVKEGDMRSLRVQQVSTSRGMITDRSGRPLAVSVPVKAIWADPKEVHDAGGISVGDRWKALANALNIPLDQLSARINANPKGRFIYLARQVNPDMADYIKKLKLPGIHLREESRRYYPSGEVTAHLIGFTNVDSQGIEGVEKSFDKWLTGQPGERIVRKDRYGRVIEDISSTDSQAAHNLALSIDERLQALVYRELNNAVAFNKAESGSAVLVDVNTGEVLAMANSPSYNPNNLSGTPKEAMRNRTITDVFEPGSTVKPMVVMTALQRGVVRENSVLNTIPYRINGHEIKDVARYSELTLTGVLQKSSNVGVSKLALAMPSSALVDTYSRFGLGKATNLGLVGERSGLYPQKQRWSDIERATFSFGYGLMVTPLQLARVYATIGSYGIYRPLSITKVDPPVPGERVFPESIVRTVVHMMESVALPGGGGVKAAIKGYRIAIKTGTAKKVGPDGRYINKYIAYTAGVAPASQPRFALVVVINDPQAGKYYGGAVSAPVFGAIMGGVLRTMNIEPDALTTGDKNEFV
T1 sequence (G3XD46 whole entry): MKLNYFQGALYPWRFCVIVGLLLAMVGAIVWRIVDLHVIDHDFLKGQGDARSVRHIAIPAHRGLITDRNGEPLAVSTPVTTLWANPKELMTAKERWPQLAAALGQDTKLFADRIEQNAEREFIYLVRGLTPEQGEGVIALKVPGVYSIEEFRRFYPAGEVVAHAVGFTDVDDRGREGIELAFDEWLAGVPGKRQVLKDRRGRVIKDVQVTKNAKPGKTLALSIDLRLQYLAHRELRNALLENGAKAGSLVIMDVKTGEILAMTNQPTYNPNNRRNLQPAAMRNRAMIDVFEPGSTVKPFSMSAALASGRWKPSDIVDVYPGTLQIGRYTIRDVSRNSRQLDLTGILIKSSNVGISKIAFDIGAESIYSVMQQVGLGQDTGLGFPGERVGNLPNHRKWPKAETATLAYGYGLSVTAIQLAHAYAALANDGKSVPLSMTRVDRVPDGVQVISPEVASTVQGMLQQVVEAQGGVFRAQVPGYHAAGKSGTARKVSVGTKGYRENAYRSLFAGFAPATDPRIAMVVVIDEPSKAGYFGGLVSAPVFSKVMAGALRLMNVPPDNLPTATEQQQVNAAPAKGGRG

Row | SMILES | P. aeruginosa PBP3 Potency [1] | EC50 [2] | MIC [3] | MIC [4] | MIC [5] | MIC [6] | MIC [7] | MIC [8] | MIC [9]
1 | NCCN1CCN(C(=O)N[C@@H](C(=O)N[C@H]2Cc3cccc(C(=O)O)c3OB2O)c2ccc(O)c(Cl)c2F)C(=O)C1=O (single isomer, unassigned) [Example 186] | D (D represents a potency <10 μM) | < 30 µM | 32 to 64 µg/mL (≈ 54.1 to 108 µM) | > 128 µg/mL | 32 to 64 µg/mL (≈ 54.1 to 108 µM) | 32 to 64 µg/mL (≈ 54.1 to 108 µM) | 8 to 16 µg/mL (≈ 13.5 to 27 µM) | < 0.25 µg/mL | 8 to 16 µg/mL (≈ 13.5 to 27 µM)
2 | O=C(O)c1cccc2c1OB(O)[C@@H](NC(=O)C(NC(=O)N1CCN(CC3CNC3)C(=O)C1=O)c1c(F)cc(O)cc1F)C2 (stereo partly drawn) [Example 193, (3R)-3-(2-(4-(azetidin-3-ylmethyl)-2,3-dioxopiperazine-1-carboxamido)-2-(2,6-difluoro-4-hydroxyphenyl)acetamido)-2-hydroxy-3,4-dihydro-2H-benzo[e][1,2]oxaborinine-8-carboxylic acid] | D (D represents a potency <10 μM) | < 30 µM | 32 to 64 µg/mL (≈ 53.2 to 106 µM) | > 128 µg/mL | > 128 µg/mL | 32 to 64 µg/mL (≈ 53.2 to 106 µM) | 8 to 16 µg/mL (≈ 13.3 to 26.6 µM) | 0.5 to 1 µg/mL (≈ 0.831 to 1.66 µM) | 8 to 16 µg/mL (≈ 13.3 to 26.6 µM)
3 | NCCCN1CCN(C(=O)N[C@@H](C(=O)N[C@H]2Cc3cccc(C(=O)O)c3OB2O)c2c(O)cc(O)cc2F)C(=O)C1=O (single isomer, unassigned) [Example 195] | D (D represents a potency <10 μM) | < 30 µM | 32 to 64 µg/mL (≈ 54.5 to 109 µM) | 32 to 64 µg/mL (≈ 54.5 to 109 µM) | > 128 µg/mL | 32 to 64 µg/mL (≈ 54.5 to 109 µM) | 8 to 16 µg/mL (≈ 13.6 to 27.2 µM) | 0.5 to 1 µg/mL (≈ 0.851 to 1.7 µM) | 8 to 16 µg/mL (≈ 13.6 to 27.2 µM)
4 | NCCN1CCN(C(=O)N[C@H](C(=O)N[C@H]2Cc3cccc(C(=O)O)c3OB2O)c2c(F)cccc2F)C(=O)C1=O (single isomer, unassigned) [Example 204] | B (B represents a potency between 30 μM and 500 μM inclusive) | > 500 µM | > 128 µg/mL | > 128 µg/mL | > 128 µg/mL | > 128 µg/mL | > 128 µg/mL | 32 to 64 µg/mL (≈ 57.2 to 114 µM) | > 128 µg/mL
5 | CCN1CCN(C(=O)NC(C(=O)N[C@H]2Cc3cccc(C(=O)O)c3OB2O)c2cc([N+](=O)[O-])c(O)cc2F)C(=O)C1=O (stereo partly drawn) [Example 184, (3R)-3-(2-(4-ethyl-2,3-dioxopiperazine-1-carboxamido)-2-(2-fluoro-4-hydroxy-5-nitrophenyl)acetamido)-2-hydroxy-3,4-dihydro-2H-benzo[e][1,2]oxaborinine-8-carboxylic acid] | D (D represents a potency <10 μM) | < 30 µM | > 128 µg/mL | > 128 µg/mL | > 128 µg/mL | > 128 µg/mL | 8 to 16 µg/mL (≈ 13.6 to 27.2 µM) | 0.5 to 1 µg/mL (≈ 0.851 to 1.7 µM) | 32 to 64 µg/mL (≈ 54.5 to 109 µM)
6 | NCCN1CCN(C(=O)N[C@H](C(=O)N[C@H]2Cc3cccc(C(=O)O)c3OB2O)c2c(F)cccc2Cl)C(=O)C1=O (single isomer, unassigned) [Example 206] | B (B represents a potency between 30 μM and 500 μM inclusive) | > 500 µM | > 128 µg/mL | > 128 µg/mL | > 128 µg/mL | > 128 µg/mL | > 128 µg/mL | 32 to 64 µg/mL (≈ 55.6 to 111 µM) | > 128 µg/mL
7 | NCCCN1CCN(C(=O)NC(C(=O)N[C@H]2Cc3cccc(C(=O)O)c3OB2O)c2c(F)cc(O)cc2F)C(=O)C1=O (stereo partly drawn) [Example 183, (3R)-3-(2-(4-(3-aminopropyl)-2,3-dioxopiperazine-1-carboxamido)-2-(2,6-difluoro-4-hydroxyphenyl)acetamido)-2-hydroxy-3,4-dihydro-2H-benzo[e][1,2]oxaborinine-8-carboxylic acid] | D (D represents a potency <10 μM) | < 30 µM | 32 to 64 µg/mL (≈ 54.3 to 109 µM) | > 128 µg/mL | > 128 µg/mL | 32 to 64 µg/mL (≈ 54.3 to 109 µM) | 8 to 16 µg/mL (≈ 13.6 to 27.2 µM) | 2 to 4 µg/mL (≈ 3.39 to 6.79 µM) | 8 to 16 µg/mL (≈ 13.6 to 27.2 µM)
8 | NCCN1CCN(C(=O)N[C@@H](C(=O)N[C@H]2Cc3cccc(C(=O)O)c3OB2O)c2c(F)cccc2Cl)C(=O)C1=O (single isomer, unassigned) [Example 205] | C (C represents a potency between 10 and 30 μM) | 30 to 500 µM | > 128 µg/mL | > 128 µg/mL | > 128 µg/mL | > 128 µg/mL | 32 to 64 µg/mL (≈ 55.6 to 111 µM) | 8 to 16 µg/mL (≈ 13.9 to 27.8 µM) | > 128 µg/mL
9 | CCN1CCN(C(=O)NC(C(=O)N[C@H]2Cc3cccc(C(=O)O)c3OB2O)c2c(F)cc(NC(=O)NC)cc2F)C(=O)C1=O (stereo partly drawn) [Example 213, (3R)-3-(2-(2,6-difluoro-4-(3-methylureido)phenyl)-2-(4-ethyl-2,3-dioxopiperazine-1-carboxamido)acetamido)-2-hydroxy-3,4-dihydro-2H-benzo[e][1,2]oxaborinine-8-carboxylic acid] | D (D represents a potency <10 μM) | < 30 µM | > 128 µg/mL | > 128 µg/mL | > 128 µg/mL | > 128 µg/mL | 2 to 4 µg/mL (≈ 3.24 to 6.49 µM) | 0.5 to 1 µg/mL (≈ 0.811 to 1.62 µM) | 32 to 64 µg/mL (≈ 51.9 to 104 µM)
10 | NCCN1CCN(C(=O)N[C@@H](C(=O)N[C@H]2Cc3cccc(C(=O)O)c3OB2O)c2c(O)cc(O)cc2F)C(=O)C1=O (single isomer, unassigned) [Example 194] | D (D represents a potency <10 μM) | < 30 µM | 32 to 64 µg/mL (≈ 55.8 to 112 µM) | 32 to 64 µg/mL (≈ 55.8 to 112 µM) | > 128 µg/mL | 32 to 64 µg/mL (≈ 55.8 to 112 µM) | 8 to 16 µg/mL (≈ 14 to 27.9 µM) | 0.5 to 1 µg/mL (≈ 0.872 to 1.74 µM) | 8 to 16 µg/mL (≈ 14 to 27.9 µM)
11 | CCN1CCN(C(=O)NC(C(=O)N[C@H]2Cc3cccc(C(=O)O)c3OB2O)c2cc(NS(N)(=O)=O)ccc2F)C(=O)C1=O (stereo partly drawn) [Example 197, (3R)-3-(2-(4-ethyl-2,3-dioxopiperazine-1-carboxamido)-2-(2-fluoro-5-(sulfamoylamino)phenyl)acetamido)-2-hydroxy-3,4-dihydro-2H-benzo[e][1,2]oxaborinine-8-carboxylic acid] | D (D represents a potency <10 μM) | < 30 µM | 32 to 64 µg/mL (≈ 51.6 to 103 µM) | 32 to 64 µg/mL (≈ 51.6 to 103 µM) | > 128 µg/mL | > 128 µg/mL | 2 to 4 µg/mL (≈ 3.22 to 6.45 µM) | < 0.25 µg/mL | 8 to 16 µg/mL (≈ 12.9 to 25.8 µM)
